Legend:
PRKD3 = target: T1, PRKD3 (Homo sapiens, UniProt O94806); assay: KiNativ in-cell kinase binding, PRKD3; set-up: endogenous in cells; host or cells: SH-SY5Y; conditions: for inhibition at 2 µM: SH-SY5Y cells
T1 sequence (O94806 1-890): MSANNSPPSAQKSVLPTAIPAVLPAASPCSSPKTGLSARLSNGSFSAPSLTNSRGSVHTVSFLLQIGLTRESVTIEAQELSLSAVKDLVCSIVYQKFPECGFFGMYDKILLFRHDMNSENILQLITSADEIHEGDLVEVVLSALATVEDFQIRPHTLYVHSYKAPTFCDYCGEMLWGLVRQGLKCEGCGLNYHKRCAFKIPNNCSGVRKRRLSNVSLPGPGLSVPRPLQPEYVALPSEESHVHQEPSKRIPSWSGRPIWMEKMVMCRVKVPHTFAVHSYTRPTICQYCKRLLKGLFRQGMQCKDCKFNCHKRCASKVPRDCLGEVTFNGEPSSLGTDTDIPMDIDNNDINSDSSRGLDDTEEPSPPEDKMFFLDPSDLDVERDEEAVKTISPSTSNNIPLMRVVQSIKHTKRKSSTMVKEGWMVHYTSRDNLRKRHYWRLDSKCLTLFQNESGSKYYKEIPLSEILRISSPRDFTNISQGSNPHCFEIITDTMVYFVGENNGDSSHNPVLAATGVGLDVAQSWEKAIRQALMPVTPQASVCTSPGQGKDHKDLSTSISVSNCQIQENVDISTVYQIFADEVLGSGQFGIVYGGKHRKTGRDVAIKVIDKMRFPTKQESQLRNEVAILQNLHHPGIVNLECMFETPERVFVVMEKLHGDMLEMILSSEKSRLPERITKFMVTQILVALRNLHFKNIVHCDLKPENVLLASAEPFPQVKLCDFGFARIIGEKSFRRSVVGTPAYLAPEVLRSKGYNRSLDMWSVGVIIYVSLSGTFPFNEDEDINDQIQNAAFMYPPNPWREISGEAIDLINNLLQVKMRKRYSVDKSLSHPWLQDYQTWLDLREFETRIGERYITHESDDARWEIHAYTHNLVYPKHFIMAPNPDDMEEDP
Text: (§1) As KINOMEscan is an in vitro assay, and as different cell types have variable kinase expression profiles we sought to determine the kinase binding profile in our SH-SY5Y TFEB-relocalization cell model. […] Bound kinases were pulled down and analyzed by mass spectrometry to determine the in situ kinase binding profile for each compound.

SRPK1 = target: T2, SRPK1 (Homo sapiens, UniProt Q96SB4); assay: KiNativ in-cell kinase binding, SRPK1; conditions: SH-SY5Y cells, Labeling Site Lys2
T2 construct: endogenous in cells; host or cells: SH-SY5Y
Text: as §1

[1] = target: T3, kinases (KINOMEscan panel) (Homo sapiens, UniProt P25098); set-up: method as in original PKIS2 published data; conditions: Published KINOMEscan; ref original PKIS2 published data; cited from earlier work
T3 sequence (P25098 1-689): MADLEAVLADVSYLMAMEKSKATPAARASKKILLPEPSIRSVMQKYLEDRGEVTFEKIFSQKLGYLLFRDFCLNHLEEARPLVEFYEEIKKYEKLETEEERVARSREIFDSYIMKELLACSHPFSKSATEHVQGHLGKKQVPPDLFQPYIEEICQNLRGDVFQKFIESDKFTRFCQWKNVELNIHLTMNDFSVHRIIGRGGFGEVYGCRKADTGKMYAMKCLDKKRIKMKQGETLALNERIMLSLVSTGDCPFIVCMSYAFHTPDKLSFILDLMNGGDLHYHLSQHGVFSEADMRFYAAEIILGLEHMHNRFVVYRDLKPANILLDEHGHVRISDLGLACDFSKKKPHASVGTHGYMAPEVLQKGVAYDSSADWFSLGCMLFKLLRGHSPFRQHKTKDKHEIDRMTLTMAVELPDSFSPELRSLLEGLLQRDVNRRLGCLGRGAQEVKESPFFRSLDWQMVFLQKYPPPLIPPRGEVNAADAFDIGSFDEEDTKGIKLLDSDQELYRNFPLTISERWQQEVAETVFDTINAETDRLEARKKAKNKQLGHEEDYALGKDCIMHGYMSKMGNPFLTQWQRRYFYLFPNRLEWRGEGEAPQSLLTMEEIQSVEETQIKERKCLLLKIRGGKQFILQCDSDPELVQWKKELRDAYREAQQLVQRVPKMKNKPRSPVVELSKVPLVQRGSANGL

[2] = target: kinases (KINOMEscan panel) (Homo sapiens, UniProt Q15375); set-up: method as in original PKIS2 published data; conditions: EPHA7; Published KINOMEscan; ref original PKIS2 published data; cited from earlier work
[3] = target: T4, kinases (KINOMEscan panel) (Homo sapiens, UniProt Q8NE63); set-up: method as in original PKIS2 published data; conditions: kinase HIPK4; Published KINOMEscan; ref original PKIS2 published data; cited from earlier work
T4 sequence (Q8NE63 1-616): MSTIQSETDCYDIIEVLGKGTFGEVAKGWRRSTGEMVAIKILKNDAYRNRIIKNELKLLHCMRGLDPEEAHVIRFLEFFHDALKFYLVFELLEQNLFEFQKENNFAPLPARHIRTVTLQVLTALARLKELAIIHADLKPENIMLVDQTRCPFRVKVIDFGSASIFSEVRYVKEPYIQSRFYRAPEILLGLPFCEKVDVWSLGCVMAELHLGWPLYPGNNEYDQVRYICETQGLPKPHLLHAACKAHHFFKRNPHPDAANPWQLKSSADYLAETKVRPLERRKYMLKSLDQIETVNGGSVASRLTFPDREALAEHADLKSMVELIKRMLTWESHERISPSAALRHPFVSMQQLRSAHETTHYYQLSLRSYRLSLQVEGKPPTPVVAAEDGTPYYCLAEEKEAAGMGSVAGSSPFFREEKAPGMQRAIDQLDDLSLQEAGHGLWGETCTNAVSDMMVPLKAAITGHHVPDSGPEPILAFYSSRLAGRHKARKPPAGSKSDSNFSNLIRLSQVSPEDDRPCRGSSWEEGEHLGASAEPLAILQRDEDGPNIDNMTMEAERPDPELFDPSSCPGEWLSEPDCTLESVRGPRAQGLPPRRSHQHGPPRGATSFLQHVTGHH

T2 sequence (Q96SB4 whole entry): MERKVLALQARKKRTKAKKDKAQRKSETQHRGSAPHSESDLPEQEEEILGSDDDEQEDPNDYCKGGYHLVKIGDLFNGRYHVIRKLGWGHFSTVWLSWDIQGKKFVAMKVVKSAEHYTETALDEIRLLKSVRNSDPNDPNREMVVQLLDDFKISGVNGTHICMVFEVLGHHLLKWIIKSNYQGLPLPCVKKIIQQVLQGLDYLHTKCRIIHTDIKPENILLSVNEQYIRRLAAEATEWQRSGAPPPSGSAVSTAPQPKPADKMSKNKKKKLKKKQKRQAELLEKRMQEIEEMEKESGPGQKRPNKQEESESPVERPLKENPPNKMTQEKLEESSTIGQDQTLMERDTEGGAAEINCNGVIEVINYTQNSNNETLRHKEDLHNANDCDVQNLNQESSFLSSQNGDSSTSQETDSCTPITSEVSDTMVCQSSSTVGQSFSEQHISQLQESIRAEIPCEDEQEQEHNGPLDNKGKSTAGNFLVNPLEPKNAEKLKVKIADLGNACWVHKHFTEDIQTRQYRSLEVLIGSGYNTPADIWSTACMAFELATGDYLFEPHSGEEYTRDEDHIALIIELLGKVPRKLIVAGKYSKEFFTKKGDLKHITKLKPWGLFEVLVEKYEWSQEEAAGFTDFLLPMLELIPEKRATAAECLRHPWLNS
kinases (KINOMEscan panel) (Homo sapiens, UniProt Q15375), sequence (Q15375 28-998): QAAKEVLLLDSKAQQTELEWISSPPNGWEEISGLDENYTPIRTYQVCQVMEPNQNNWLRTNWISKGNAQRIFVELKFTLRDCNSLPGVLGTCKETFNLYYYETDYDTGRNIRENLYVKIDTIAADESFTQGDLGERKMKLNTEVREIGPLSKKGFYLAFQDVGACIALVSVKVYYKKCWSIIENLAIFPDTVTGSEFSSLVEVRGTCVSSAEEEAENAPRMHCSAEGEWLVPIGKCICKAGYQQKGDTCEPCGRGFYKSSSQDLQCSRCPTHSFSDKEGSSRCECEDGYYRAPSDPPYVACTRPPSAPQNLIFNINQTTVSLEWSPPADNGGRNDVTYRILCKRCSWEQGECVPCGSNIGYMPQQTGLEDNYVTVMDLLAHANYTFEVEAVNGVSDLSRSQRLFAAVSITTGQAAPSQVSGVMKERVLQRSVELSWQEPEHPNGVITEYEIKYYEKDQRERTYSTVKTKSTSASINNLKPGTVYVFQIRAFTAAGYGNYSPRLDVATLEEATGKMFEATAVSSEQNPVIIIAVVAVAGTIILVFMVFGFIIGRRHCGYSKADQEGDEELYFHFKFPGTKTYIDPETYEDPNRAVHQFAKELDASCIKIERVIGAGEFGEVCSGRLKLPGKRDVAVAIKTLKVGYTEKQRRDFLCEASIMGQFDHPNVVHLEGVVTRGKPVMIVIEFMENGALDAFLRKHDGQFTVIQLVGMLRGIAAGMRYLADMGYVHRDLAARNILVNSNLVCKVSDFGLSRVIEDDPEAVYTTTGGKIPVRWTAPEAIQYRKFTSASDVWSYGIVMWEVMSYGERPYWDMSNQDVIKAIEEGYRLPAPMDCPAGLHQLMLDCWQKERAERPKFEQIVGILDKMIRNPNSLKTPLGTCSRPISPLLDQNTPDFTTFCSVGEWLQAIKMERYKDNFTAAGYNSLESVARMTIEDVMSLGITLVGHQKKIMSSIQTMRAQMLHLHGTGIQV

In the case of `Cc1cccc(-c2nc(Nc3ccc4ncsc4c3)c3ccccc3n2)n1` [NK140], the inhibition at 2 µM (PRKD3; Labeling Site Lys1, DVAIKVIDK) is reported as 71.5%, the inhibition at 2 µM (PRKD3; Labeling Site Lys2, NIVHCDLKPENVLLASAEPFPQVK) is reported as 78.5% and the “KiNativ binding of PRKD3 (in words)” value (PRKD3; SH-SY5Y cells treated 2 h) is reported as “bound”. For the same compound, the inhibition at 2 µM (SRPK1) was 67.9%.
In the case of `Cc1cccc(-c2nc(Nc3ccncc3)c3ccccc3n2)n1` [NK215], the “KINOMEscan GRK2” value [1] is listed as 0, the “KINOMEscan EPHA7” value [2] is listed as 0 and the “KINOMEscan HIPK4” value [3] is listed as 19.

— publication PMC9851200, “Multiparameter phenotypic screening for endogenous TFEB and TFE3 translocation identifies novel chemical series modulating lysosome function” (Autophagy, 2022)
